Each block holds one compound with its values, some of them ahead of it.
How the values were obtained:
[1] = target: T1, Equilibrative nucleoside transporter 1 (Homo sapiens, UniProt Q99808); experiment: Inhibition of human ENT1 transfected in nucleoside transporter-deficient pig PK-15 cells assessed as inhibition of [3H]-uridine uptake by liquid scintillation counter analysis; assay type: cell-based
T1 sequence (Q99808 whole entry): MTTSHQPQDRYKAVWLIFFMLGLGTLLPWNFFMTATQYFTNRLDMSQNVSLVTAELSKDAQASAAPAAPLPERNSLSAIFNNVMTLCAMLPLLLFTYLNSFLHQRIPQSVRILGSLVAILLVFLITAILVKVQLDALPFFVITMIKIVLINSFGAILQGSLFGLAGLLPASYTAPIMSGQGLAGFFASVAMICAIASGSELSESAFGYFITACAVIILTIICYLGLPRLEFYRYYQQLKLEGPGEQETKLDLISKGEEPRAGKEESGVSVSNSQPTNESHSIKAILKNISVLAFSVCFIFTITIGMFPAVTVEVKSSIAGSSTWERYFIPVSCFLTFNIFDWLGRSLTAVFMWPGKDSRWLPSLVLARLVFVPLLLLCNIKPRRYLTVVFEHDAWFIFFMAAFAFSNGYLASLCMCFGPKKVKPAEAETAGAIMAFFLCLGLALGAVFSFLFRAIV

[2] = target: T2, Equilibrative nucleoside transporter 2 (Homo sapiens, UniProt Q14542); experiment: Inhibition of human ENT2 transfected in nucleoside transporter-deficient pig PK-15 cells assessed as inhibition of [3H]-uridine uptake by liquid scintillation counter analysis; assay type: cell-based
T2 sequence (Q14542 whole entry): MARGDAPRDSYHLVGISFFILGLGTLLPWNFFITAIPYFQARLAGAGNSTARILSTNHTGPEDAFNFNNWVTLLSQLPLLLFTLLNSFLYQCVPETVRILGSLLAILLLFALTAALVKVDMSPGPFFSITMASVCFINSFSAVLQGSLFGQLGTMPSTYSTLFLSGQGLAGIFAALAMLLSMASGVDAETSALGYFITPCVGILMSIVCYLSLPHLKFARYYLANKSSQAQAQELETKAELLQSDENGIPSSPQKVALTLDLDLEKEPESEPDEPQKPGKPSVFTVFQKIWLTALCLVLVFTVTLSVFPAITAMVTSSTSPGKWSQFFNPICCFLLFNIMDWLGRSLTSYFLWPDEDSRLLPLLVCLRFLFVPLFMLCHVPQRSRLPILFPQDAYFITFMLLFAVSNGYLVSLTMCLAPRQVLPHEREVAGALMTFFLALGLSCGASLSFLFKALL

[3] = Cytotoxicity against human IM-9 cells assessed as cell growth inhibition; assay type: toxicity, cell-based
[4] = system: Jurkat; experiment: Cytotoxicity against human Jurkat cells assessed as cell growth inhibition; assay type: functional, cell-based
[5] = system: Daudi; experiment: Cytotoxicity against human Daudi cells assessed as cell growth inhibition; assay type: functional, cell-based
[6] = system: HL-60; experiment: Cytotoxicity against human HL-60 cells assessed as cell growth inhibition; assay type: functional, cell-based
[7] = system: MCF7; experiment: Cytotoxicity against human MCF7 cells assessed as cell growth inhibition; assay type: functional, cell-based
[8] = system: DU-145; experiment: Cytotoxicity against human DU-145 cells assessed as cell growth inhibition; assay type: functional, cell-based
[9] = Cytotoxicity against mouse LL2 cells assessed as cell growth inhibition; assay type: functional, cell-based; conditions: Lewis lung carcinoma
[10] = system: SK-OV-3; experiment: Cytotoxicity against human SK-OV-3 cells assessed as cell growth inhibition; assay type: functional, cell-based
[11] = Cytotoxicity against human MHOC-59 cell assessed as cell growth inhibition; assay type: functional, cell-based
[12] = system: AN3-CA; experiment: Cytotoxicity against human AN3-CA cells assessed as cell growth inhibition; assay type: functional, cell-based
[13] = system: HEC-1-A; experiment: Cytotoxicity against human HEC-1-A cells assessed as cell growth inhibition; assay type: functional, cell-based
[14] = system: K562; experiment: cells; conditions: Homo sapiens
Description: Cytotoxicity against human K562 cells assessed as cell growth inhibition

[15] = target: NADPH oxidase 1 (Homo sapiens, UniProt Q9Y5S8); experiment: Inhibition of human NOX1
[16] = target: NADPH oxidase 2 (Homo sapiens, UniProt P04839); experiment: Inhibition of human NOX2
[17] = target: NADPH oxidase 3 (Homo sapiens, UniProt Q9HBY0); experiment: Inhibition of human NOX3
[18] = target: NADPH oxidase 4 (Homo sapiens, UniProt Q9NPH5); experiment: Inhibition of human NOX4
[19] = target: NADPH oxidase 5 (Homo sapiens, UniProt Q96PH1); experiment: Inhibition of human NOX5
[20] = target: T3, Free fatty acid receptor 1 (Homo sapiens, UniProt O14842); experiment: Positive allosteric modulation of GPR40 (unknown origin) at 100 uM assessed as maximum efficacy relative to control; conditions: filed as positive allosteric modulator
[21] = target: T3, Free fatty acid receptor 1; experiment: Positive allosteric modulation of GPR40 (unknown origin)
[22] = system: Human immunodeficiency virus 1; experiment: Antiviral activity against wild type HIV1 IIIB assessed as viral growth inhibition measured after 5 days by MTT assay; assay type: functional, organism-based; conditions: Human immunodeficiency virus 1, IIIB, 120 h
[23] = system: Human immunodeficiency virus 1; experiment: Antiviral activity against NNRTI resistant HIV1 harboring Leu100IIe mutant infected in human MT4 cells assessed as reduction in virus-induced cytopathic effect measured after 5 days by MTT assay; assay type: functional, organism-based; conditions: Human immunodeficiency virus 1, MT4, 120 h
[24] = system: Human immunodeficiency virus 1; experiment: Antiviral activity against NNRTI resistant HIV1 harboring Lys103Asn mutant infected in human MT4 cells assessed as reduction in virus-induced cytopathic effect measured after 5 days by MTT assay; assay type: functional, organism-based; conditions: Human immunodeficiency virus 1, MT4, 120 h
[25] = system: Human immunodeficiency virus 1; experiment: Antiviral activity against NNRTI resistant HIV1 harboring Val106Ala mutant infected in human MT4 cells assessed as reduction in virus-induced cytopathic effect measured after 5 days by MTT assay; assay type: functional, organism-based; conditions: Human immunodeficiency virus 1, MT4, 120 h
[26] = system: Human immunodeficiency virus 1; experiment: Antiviral activity against NNRTI resistant HIV1 harboring Tyr181Cys mutant infected in human MT4 cells assessed as reduction in virus-induced cytopathic effect measured after 5 days by MTT assay; assay type: functional, organism-based; conditions: Human immunodeficiency virus 1, MT4, 120 h
[27] = system: Human immunodeficiency virus 1; experiment: Antiviral activity against NNRTI resistant HIV1 harboring Gly190Ala mutant infected in human MT4 cells assessed as reduction in virus-induced cytopathic effect measured after 5 days by MTT assay; assay type: functional, organism-based; conditions: Human immunodeficiency virus 1, MT4, 120 h
[28] = system: Human immunodeficiency virus 1; experiment: Antiviral activity against NNRTI resistant HIV1 LAI infected in human MT4 cells assessed as reduction in virus-induced cytopathic effect measured after 5 days by MTT assay; assay type: functional, organism-based; conditions: Human immunodeficiency virus 1, LAI, MT4, 120 h
[29] = system: Human immunodeficiency virus 1; experiment: Antiviral activity against NNRTI resistant HIV1 harboring Tyr188Leu mutant infected in human MT4 cells assessed as reduction in virus-induced cytopathic effect measured after 5 days by MTT assay; assay type: functional, organism-based; conditions: Human immunodeficiency virus 1, MT4, 120 h
[30] = system: Jurkat; experiment: Cytotoxicity against human Jurkat cells assessed as cell growth inhibition measured after 72 hrs by MTS assay; assay type: functional, cell-based
[31] = target: 5-hydroxytryptamine receptor 1A (Homo sapiens, UniProt P08908); experiment: Displacement of […] from human 5-HT1AR expressed in HEK293 cells by radioligand binding assay; assay type: cell-based
[32] = target: 5-hydroxytryptamine receptor 2A (Homo sapiens, UniProt P28223); experiment: Displacement of […] from human 5-HT2AR expressed in HEK293 cells by radioligand binding assay; assay type: cell-based
[33] = target: 5-hydroxytryptamine receptor 7 (Homo sapiens, UniProt P34969); experiment: Displacement of [3H]-5Carboxyamidotryptamine from human 5-HT7R expressed in HEK293 cells by radioligand binding assay; assay type: cell-based
[34] = target: D(2) dopamine receptor (Homo sapiens, UniProt P14416); experiment: Displacement of [3H]-Raclopride from human dopamine D2 receptor expressed in HEK293 cells by radioligand binding assay; assay type: cell-based
D(2) dopamine receptor, sequence (P14416 whole entry): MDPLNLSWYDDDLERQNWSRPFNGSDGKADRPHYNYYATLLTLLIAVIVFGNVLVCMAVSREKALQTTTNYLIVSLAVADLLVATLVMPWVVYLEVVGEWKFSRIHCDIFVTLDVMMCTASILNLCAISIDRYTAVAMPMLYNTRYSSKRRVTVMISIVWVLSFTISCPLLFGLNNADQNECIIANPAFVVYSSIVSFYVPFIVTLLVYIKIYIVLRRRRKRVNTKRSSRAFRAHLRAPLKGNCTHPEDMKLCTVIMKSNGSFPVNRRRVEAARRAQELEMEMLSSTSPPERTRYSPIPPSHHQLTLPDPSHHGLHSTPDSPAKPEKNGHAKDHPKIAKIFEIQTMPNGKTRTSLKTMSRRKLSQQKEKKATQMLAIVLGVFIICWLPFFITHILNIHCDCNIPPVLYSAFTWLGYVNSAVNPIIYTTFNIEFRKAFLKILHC

T3 sequence (O14842 whole entry): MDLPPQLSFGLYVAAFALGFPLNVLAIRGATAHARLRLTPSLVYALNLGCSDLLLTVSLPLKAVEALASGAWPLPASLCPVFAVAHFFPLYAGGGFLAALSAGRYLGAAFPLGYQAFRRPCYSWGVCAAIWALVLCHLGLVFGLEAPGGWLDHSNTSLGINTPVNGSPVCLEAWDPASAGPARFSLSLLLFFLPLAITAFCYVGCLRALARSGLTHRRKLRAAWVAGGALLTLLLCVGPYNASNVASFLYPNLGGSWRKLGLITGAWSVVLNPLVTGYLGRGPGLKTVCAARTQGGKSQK
5-hydroxytryptamine receptor 7, sequence (P34969 whole entry): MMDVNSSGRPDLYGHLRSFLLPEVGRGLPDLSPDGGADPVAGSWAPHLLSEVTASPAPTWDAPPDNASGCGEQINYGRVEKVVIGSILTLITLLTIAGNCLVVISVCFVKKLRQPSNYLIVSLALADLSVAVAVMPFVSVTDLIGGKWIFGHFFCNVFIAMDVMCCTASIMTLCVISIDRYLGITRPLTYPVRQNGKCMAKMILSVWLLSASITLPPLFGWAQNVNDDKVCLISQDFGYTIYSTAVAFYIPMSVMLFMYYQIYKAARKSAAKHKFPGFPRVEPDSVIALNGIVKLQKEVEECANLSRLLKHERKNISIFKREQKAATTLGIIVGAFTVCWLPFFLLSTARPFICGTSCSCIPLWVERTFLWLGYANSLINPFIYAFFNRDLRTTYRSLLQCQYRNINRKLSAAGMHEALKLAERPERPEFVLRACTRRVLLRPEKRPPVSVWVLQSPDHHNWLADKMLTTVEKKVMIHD
NADPH oxidase 1, sequence (Q9Y5S8 whole entry): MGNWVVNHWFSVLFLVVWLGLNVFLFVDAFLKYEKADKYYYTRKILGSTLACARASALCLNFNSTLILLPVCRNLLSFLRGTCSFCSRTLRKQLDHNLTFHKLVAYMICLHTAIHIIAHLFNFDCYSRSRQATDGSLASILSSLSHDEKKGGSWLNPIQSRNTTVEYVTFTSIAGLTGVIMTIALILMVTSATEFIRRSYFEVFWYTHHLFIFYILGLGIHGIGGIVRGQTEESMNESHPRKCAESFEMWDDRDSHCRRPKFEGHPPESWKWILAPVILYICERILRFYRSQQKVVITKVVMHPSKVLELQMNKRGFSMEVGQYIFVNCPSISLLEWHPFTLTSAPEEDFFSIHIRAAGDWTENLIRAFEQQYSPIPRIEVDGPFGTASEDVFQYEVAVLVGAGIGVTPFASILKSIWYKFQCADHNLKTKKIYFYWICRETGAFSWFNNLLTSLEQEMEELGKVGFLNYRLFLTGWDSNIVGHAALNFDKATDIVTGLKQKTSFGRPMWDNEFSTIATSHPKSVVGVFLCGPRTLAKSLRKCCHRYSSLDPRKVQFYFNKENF
NADPH oxidase 3, sequence (Q9HBY0 whole entry): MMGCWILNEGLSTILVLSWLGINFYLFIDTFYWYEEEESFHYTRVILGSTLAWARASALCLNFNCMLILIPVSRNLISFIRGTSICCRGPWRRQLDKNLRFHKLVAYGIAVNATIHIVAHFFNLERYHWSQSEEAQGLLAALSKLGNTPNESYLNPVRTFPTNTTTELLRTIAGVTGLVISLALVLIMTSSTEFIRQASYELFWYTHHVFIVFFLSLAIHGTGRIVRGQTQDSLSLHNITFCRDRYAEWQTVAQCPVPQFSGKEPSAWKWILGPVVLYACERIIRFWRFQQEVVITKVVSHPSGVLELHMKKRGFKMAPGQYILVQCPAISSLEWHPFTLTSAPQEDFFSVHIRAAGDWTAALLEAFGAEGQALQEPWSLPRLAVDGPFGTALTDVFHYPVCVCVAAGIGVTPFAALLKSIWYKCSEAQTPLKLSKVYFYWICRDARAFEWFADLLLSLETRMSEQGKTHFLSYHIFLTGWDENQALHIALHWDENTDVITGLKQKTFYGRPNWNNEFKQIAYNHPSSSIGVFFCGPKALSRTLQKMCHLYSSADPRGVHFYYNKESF
5-hydroxytryptamine receptor 1A, sequence (P08908 whole entry): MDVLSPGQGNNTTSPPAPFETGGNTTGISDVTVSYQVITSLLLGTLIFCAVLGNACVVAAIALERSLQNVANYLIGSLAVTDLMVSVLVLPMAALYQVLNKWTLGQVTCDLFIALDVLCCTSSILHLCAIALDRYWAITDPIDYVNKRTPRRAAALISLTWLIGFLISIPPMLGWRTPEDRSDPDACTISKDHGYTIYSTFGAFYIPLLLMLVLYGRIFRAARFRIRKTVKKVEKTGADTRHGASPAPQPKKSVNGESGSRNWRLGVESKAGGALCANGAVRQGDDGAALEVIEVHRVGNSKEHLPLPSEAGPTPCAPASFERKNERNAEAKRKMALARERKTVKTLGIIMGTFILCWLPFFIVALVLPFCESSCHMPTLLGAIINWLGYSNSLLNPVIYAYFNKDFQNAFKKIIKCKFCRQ
NADPH oxidase 2, sequence (P04839 whole entry): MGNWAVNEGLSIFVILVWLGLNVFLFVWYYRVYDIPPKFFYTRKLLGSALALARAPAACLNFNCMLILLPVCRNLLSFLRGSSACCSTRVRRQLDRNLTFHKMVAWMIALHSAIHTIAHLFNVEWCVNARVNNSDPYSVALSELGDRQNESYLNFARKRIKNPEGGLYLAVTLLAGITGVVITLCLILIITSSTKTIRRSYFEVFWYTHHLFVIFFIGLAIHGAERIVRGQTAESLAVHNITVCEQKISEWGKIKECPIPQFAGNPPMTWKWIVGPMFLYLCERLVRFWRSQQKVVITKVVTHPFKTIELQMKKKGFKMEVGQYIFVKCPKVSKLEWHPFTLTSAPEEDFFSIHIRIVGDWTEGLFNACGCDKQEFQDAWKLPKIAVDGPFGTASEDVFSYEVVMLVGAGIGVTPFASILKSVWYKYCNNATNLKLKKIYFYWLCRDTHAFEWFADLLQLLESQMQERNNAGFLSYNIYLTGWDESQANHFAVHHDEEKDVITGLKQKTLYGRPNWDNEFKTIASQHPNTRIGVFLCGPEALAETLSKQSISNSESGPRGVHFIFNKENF
5-hydroxytryptamine receptor 2A, sequence (P28223 whole entry): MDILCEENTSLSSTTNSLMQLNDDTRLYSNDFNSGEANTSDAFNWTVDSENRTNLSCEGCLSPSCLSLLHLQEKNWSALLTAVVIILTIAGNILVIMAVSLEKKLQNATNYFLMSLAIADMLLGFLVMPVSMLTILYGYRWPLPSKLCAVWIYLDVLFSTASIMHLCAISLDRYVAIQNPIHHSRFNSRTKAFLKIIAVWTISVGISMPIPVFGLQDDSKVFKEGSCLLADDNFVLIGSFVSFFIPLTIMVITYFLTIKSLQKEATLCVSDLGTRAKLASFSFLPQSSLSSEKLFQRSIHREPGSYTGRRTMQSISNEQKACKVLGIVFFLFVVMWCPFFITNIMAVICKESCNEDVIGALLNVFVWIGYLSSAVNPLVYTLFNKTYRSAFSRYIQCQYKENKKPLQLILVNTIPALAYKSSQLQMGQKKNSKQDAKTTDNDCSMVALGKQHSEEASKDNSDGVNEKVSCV
NADPH oxidase 5, sequence (Q96PH1 whole entry): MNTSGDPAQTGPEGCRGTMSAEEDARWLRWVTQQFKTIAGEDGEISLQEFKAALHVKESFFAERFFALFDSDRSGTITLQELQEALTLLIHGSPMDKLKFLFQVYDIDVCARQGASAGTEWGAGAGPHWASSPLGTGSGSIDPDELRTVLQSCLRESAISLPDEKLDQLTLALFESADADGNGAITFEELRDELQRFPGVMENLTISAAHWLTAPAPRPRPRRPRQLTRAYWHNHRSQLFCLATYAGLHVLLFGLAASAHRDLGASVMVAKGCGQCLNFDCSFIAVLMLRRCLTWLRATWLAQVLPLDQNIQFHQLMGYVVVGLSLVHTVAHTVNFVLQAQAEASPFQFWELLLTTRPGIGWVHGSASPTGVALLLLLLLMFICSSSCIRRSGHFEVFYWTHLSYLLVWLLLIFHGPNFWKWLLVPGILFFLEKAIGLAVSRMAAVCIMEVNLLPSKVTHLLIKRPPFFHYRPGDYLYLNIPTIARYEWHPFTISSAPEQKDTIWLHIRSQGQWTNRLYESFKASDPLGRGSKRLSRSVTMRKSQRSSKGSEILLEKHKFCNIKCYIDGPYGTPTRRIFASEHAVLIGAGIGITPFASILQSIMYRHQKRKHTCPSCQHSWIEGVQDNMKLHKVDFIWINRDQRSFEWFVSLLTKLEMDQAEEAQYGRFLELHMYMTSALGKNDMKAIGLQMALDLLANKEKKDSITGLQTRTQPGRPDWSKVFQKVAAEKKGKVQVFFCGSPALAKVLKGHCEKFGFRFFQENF

IC50 [1]: 590 nM
IC50 [2]: 77.1 µM
SMILES: COc1ccc(Nc2nc(N)nc(CN3CCN(c4ccccc4F)CC3)n2)cc1

IC50 [1]: 2380 nM
IC50 [2]: 0.57 µM
SMILES: Cc1cccc(Nc2nc(N)nc(CN3CCN(c4ccc(F)cc4)CC3)n2)c1

IC50 [15]: 7 µM
IC50 [16]: 16 µM
IC50 [17]: 3.2 µM
IC50 [18]: 680 nM
IC50 [19]: 570 nM
SMILES: Cc1ccc(N2CCN(c3nc(N)nc(Nc4ccc(C)c(C)c4)n3)CC2)cc1

Emax [20]: 134%
EC50 [21]: 776 nM
SMILES: Cc1ccccc1Nc1nc(N)nc(COc2ccc3c(C)cc(=O)oc3c2)n1

IC50 [14]: 50 nM
SMILES: Cc1ccc(Cl)cc1-c1nc(N)nc(Nc2ccc(Br)cc2)n1
IC50 [3]: 50 nM
IC50 [4]: 50 nM
IC50 [5]: 70 nM
IC50 [7]: 90 nM
IC50 [8]: 70 nM
IC50 [9]: 75 nM
IC50 [11]: 104 nM
IC50 [12]: 37 nM
IC50 [13]: 100 nM

Ki [31]: 2290 nM
Ki [32]: 39 nM
Ki [33]: 0.61 µM
Ki [34]: 300 nM
SMILES: CN1CCN(c2nc(N)nc(C(C)(C)Sc3ccc4ccccc4c3)n2)CC1

Continued, compound first:

SMILES: CCOc1ccc(Cl)cc1-c1nc(N)nc(Nc2ccc(CO)cc2)n1
IC50 [3]: < 12.5 nM
IC50 [4]: < 12.5 nM
IC50 [5]: 13 nM
IC50 [6]: < 12.5 nM
IC50 [7]: 40 nM
IC50 [8]: 25 nM
IC50 [9]: 25 nM
IC50 [10]: 29 nM
IC50 [11]: 25 nM
IC50 [12]: 32 nM
IC50 [13]: 41 nM
IC50 [14]: < 12.5 nM

SMILES: N#Cc1ccc(Nc2nc(N)nc(Cc3c(Cl)cccc3Cl)n2)cc1
IC50 [22]: 2 nM
IC50 [23]: 293 nM
IC50 [24]: 40 nM
IC50 [25]: 26 nM
IC50 [26]: 200 nM
IC50 [27]: 1 nM
IC50 [28]: 6.3 nM

SMILES: N#Cc1ccc(Nc2nc(N)nc(Cc3c(Cl)ccc4[nH]ccc34)n2)cc1
IC50 [22]: 3 nM
IC50 [23]: 1000 nM
IC50 [24]: 63 nM
IC50 [25]: 63 nM
IC50 [26]: 250 nM
IC50 [29]: 1000 nM
IC50 [27]: 3 nM

SMILES: Nc1nc(-c2ccccc2)nc(N2CCc3ccccc3C2)n1
IC50 [30]: 1950 nM

SMILES: CCC(Oc1cc(Cl)ccc1Cl)c1nc(N)nc(N2CCN(C)CC2)n1 (stereo not drawn)
Ki [33]: 5.71 µM

Source: ChEMBL document CHEMBL5214932, “A closer look at N2,6-substituted 1,3,5-triazine-2,4-diamines: Advances in synthesis and biological activities” (Eur J Med Chem, 2022)
